These results are taken from publication PMC6906431, “Selective small molecule PARG inhibitor causes replication fork stalling and cancer cell death” (Nature Communications, 2019).

The subject of assay [1] is MDA-MB-231 cells with scrambled shRNA (control). Kind of assay: Cellular PARylation, anti-PAR immunoblot. Format: cell-based, human. How it is done:
Fig. 6 Selective inhibition of PARG by xanthine derivative JA2131. a Clonogenic survival assays of PC3, MDA-MB-231, and MCF-7 cells treated with PARGi. Cells were treated with either DMSO or 10 µM JA2131 for 2 h, irradiated with 3 Gy (MDA-MB-231 and MCF-7), 7 Gy (PC3) IR and grown for ~2 weeks, then colonies were fixed with methanol and stained with crystal violet. The results of three independent experiments are shown. Error bars = the standard error of the mean (SEM). b dose-response of JA2131 in MDA-MB-231 cells with and without IR. Cells were treated with designated concentrations of JA2131 for 2 h and then either left untreated or exposed to 3 Gy IR and allowed to recover for 1 h before lysis. Total protein was immunoblotted with anti-PAR antibody (upper panel), stripped and reprobed with anti-PCNA as a loading control. c MDA-MB-231 cells with stable scrambled shRNA (WT) or stable PARG shRNA, knockdown (KD), were treated with 5 μM JA2131 for 2 h, lysed and then total lysates were immunoblotted for anti-PAR (upper panel) followed by anti-PARG (upper middle panel), anti-PARP1 (lower middle panel) and anti-actin (bottom panel) antibody. […] Stable cells with scramble shRNA (control) and shPARG (PARG-KD) cells were treated with an increasing concentration of JA2131 for growth inhibitory IC50 determination. The data was normalized against 100% survival at the lowest inhibitor concentration. Error bars show the percent coefficient of variation. Equivalent concentrations of DMSO were used as a negative control. e The cytotoxicity of JA2131 along with PDD, Veliparib and Doxorubicin against MRC-5 cells. Error bars show the percent coefficient of variation. f CETSA for in-cell JA2131 target engagement. Normalized anti-PARG western blot intensities of three independent experiments were fitted as above and the estimated aggregation temperature (Tagg) is shown in the tabulated insert. Source Data are provided as a Source Data file.
Thus, dose-dependent JA2131-induced cellular PARylation with and without IR was investigated. For combined IR treatment, MDA-MB-231 cells were treated with JA2131 for 2 h, followed by […] X-ray and then allowed to recover for an hour before cellular extraction and western blotting analysis.
Using shRNA, next, we generated a stable MDA-MB-231 PARG knockdown (PARG-KD) cell-line (Supplementary Fig. 10). We compared PARGi JA2131-induced PARylation in PARG-KD and control cells. We reasoned that PARG-KD cells would show a reduced response to a selective PARGi as the stable PARG-KD cells would have to adopt a PARG-independent survival mechanism. MDA-MB-231 control cells and PARG-KD cells were treated with JA2131, then total cell lysates were subjected to immunoblotting with anti-PAR antibody, followed by immunodetection for anti-PARG, PARP1 and Actin antibody (Fig. 6c). […] Dose-response curves comparing control and PARG-KD cells further validate the selective action of JA2131 on control cells expressing PARG, but not on the PARG-KD cells (Supplementary Fig. 12).
Cells were grown in 6-well plates and 10 cm dishes, treated with PARGi for 2 h, irradiated and recovered for 1 h before harvesting. Cells were irradiated, ranging from 1 to 10 Gy using RAD SOURCE, RS-2000, Biological System, RadSource.com. Cells were washed with phosphate buffer and saline (PBS) and lysed with buffer containing 50 mM Hepes, pH 7.5, 1% (vol/vol) igepal-C630, 1 mg/ml bacitracin, 1 mM EDTA, 10 mM NaF, 1 mM sodium orthovanadate, 10% (vol/vol) glycerol, 50 mM NaCl, 1 mM PMSF, and Protease Inhibitor Cocktail Set III (EMD Millipore). The detergent-soluble fraction was used for western blotting. Cell fractionation was carried out using the Subcellular Protein Fractionation Kit, (#78840, ThermoFisher) according to the manufacturer’s instruction. Primary antibodies were purchased from the following sources; Actin, GAPDH, γH2AX and Histone-H3 was from Cell Signaling Technology. H2AX and LAMB1 were from Invitrogen/ThermoFisher. […]
For orientation: In western blotting, separated proteins are transferred to a membrane and probed.

In assay [2] the test system is PARPi resistant SUM149PT cells. Kind of assay: PAR and gH2AX high-content imaging in PARPi-resistant cells. Format: cell-based, human. The note with it: 10 µM JA2131 2 h; 3Gy IR. How it is done:
PARG inhibitors as potential therapeutic option for PARP1 inhibitor resistant cancers.
As PARP1 inhibitors are now widely used in the clinic but frequently resistance is emerging, we evaluated if PARG may be a therapeutic option for patients who become PARP1 inhibitor resistant. We therefore generated PARP1 inhibitor resistant SUM149PT triple negative breast cancer cell-lines through with 100 nM talazoparib for 5 constitutive days and then with 15-50 nM talazoparib until resistant cells grew into clones. The resulting resistant cell clones were propagated and expanded to generate PARP inhibitor resistant SUM149PT derivative cells that no longer responded to PARP1i treatment. We then investigated whether the PARP resistant breast cancer cells would response to the PARG inhibitors. Four PARPi resistant SUM149PT cell clones together with wild type cells were treated with JA2131. PAR accumulation and gH2AX foci formation were analyzed by high content imaging (Fig. S6). Treatment of cells with […]
immu n o fluorescence signals. The PAR accumulation and gH2AX foci formation was very similar […]
PARP1 resistant patients.
Supplementary Fig. 17: PARPi resistant cells respond to JA2131 PARGi. (a) PARGi sensitizes PARP1i resistant breast cancer cells. […]

As for `Cn1c(=S)c2[nH]c(SCCN3CCOCC3)nc2n(C)c1=O` [JA2131], the “anti-PAR western blot band, Normalized” value in assay [1] (5 μM JA2131 2 h, Ci-DMSO = 1) is on record as 6.313. Moreover, in assay [1] (5 μM JA2131 2 h, ImageJ), the “anti-PAR western blot band, Intensity inversion” value came to 0.006671; the “anti-PAR western blot band, Neg. substracted” value is recorded as 0.001364; the “anti-PAR western blot band, mean int.” value is 149.9. In addition, the “PAR accumulation after treatment” value in assay [1] (5 μM, 2 h) is “a measurable increase in PAR”. The “cellular PARylation” value in assay [1] (JA2131 2 h combined with IR, 1 h recovery) is on record as “massive increase in cellular PARylation at 100 nM”. Further, the “cellular PARylation” value in assay [1] (JA2131 alone, 2 h) was “dose-dependent increase in cellular PARylation between 1 μM and 5 μM doses”. In addition, the “PAR accumulation and gH2AX staining” value in assay [2] is “increased PAR accumulation as well as gH2AX staining”.
